Assay results taken from patent US8637499B2, “Benzoxazepines as inhibitors of PI3K/mTOR and methods of their use and manufacture” (Exelixis, Inc., priority 2009, dated 2014).

target: mTORC1 (mTOR/GbL/Raptor) (Homo sapiens, UniProt P42345); experiment: mTOR/GbL/Raptor (mTORC1) ELISA Assay; type: biochemical; settings: 0.2 nM mTORC1, 10 μM ATP, 50 nM NHis-tagged 4E-BP1; phosphorylation of 4E-BP1; read-out: IC50
Experimental: mTOR/GbL/Raptor (mTORC1) ELISA Assay
The measurement of mTORC1 enzyme activity was performed in an ELISA assay format following the phosphorylation of 4E-BP1 protein. All experiments were performed in the 384-well format. Generally, 0.5 μL DMSO containing varying concentrations of the test compound was mixed with 15 μL enzyme solution. Kinase reactions were initiated with the addition of 15 μL of substrates-containing solution. The assay conditions were as follows; 0.2 nM mTORC1, 10 μM ATP and 50 nM NHis-tagged 4E-BP1 in 20 mM Hepes, pH 7.2, 1 mM DTT, 50 mM NaCl, 10 mM MnCl2, 0.02 mg/mL BSA, 0.01% CHAPS, 50 mM β-glycerophosphate. Following an incubation of 120 minutes at ambient temperature, 20 μL of the reaction volume was transferred to a Ni-Chelate-coated 384-well plate. The binding step of the 4E-BP1 protein proceeded for 60 minutes, followed by washing 4 times each with 50 μL of Tris-buffered saline solution (TBS). Anti-phospho-4E-BP1 rabbit-IgG (20 μL, 1:5000) in 5% BSA-TBST (0.2% Tween-20 in TBS) was added and further incubated for 60 minutes. Incubation with a secondary HRP-tagged anti-IgG was similarly performed after washing off the primary antibody (4 washes of 50 μL). Following the final wash step with TBST, 20 μL of SuperSignal ELISA Femto (Pierce Biotechnology) was added and the luminescence measured using an EnVision plate reader.

| IC50 [nM] | Structure (SMILES) |
| --- | --- |
| 250 to 700 | Nc1cnc(-c2ccc3c(c2)CN(C(=O)N2CCC(C(F)(F)F)CC2)CCO3)cn1 [Compound 6, 5-(4-{[4-(trifluoromethyl)piperidin-1-yl]carbonyl}-2,3,4,5-tetrahydro-1,4-benzoxazepin-7-yl)pyrazin-2-amine] |
| 250 to 700 | CCC1CC2(CCN(C(=O)N3CCOc4ccc(-c5ccc6nc(C)[nH]c6c5)cc4C3)CC2)CC(=O)N1 (centres unmarked) [Compound 155, 4-ethyl-9-{[7-(2-methyl-1H-benzimidazol-6-yl)-2,3-dihydro-1,4-benzoxazepin-4(5H)-yl]carbonyl}-3,9-diazaspiro[5.5]undecan-2-one] |
| 250 to 700 | Cc1nc2ccc(-c3ccc4c(c3)CN(C(=O)N3CCN(C)C(=O)C3)CCO4)cc2[nH]1 [Compound 146, 1-methyl-4-{[7-(2-methyl-1H-benzimidazol-6-yl)-2,3-dihydro-1,4-benzoxazepin-4(5H)-yl]carbonyl}piperazin-2-one] |
| 250 to 700 | Cc1nc2ccc(-c3ccc4c(c3)CN(C(=O)N3CCCCC3Cc3ccccc3)CCO4)cc2[nH]1 (centres unmarked) [Compound 104, 7-(2-methyl-1H-benzimidazol-6-yl)-4-{[2-(phenylmethyl)piperidin-1-yl]carbonyl}-2,3,4,5-tetrahydro-1,4-benzoxazepine] |
| 700 to 2600 | CC1CCN(C(=O)N2CCOc3ccc(-c4cnc(N)cn4)cc3C2)CC1 [Compound 4, 5-{4-[(4-methylpiperidin-1-yl)carbonyl]-2,3,4,5-tetrahydro-1,4-benzoxazepin-7-yl}pyrazin-2-amine] |
| 700 to 2600 | Cc1nc2ccc(-c3ccc4c(c3)CN(C(=O)N3CCCCC3c3ccc(F)cc3C)CCO4)cc2[nH]1 (centres unmarked) [Compound 117, 4-{[2-(4-fluoro-2-methylphenyl)piperidin-1-yl]carbonyl}-7-(2-methyl-1H-benzimidazol-6-yl)-2,3,4,5-tetrahydro-1,4-benzoxazepine] |
| 700 to 2600 | Cc1nc2ccc(-c3ccc4c(c3)CN(C(=O)N3CCN(c5ccccc5F)CC3)CCO4)cc2[nH]1 [Compound 165, 4-{[4-(2-fluorophenyl)piperazin-1-yl]carbonyl}-7-(2-methyl-1H-benzimidazol-6-yl)-2,3,4,5-tetrahydro-1,4-benzoxazepine] |
| 700 to 2600 | Cc1nc2ccc(-c3ccc4c(c3)CN(C(=O)NC3[C@H]5C[C@@H]6C[C@@H](C[C@H]3C6)C5)CCO4)cc2[nH]1 (stereo partly drawn) [Compound 149, 7-(2-methyl-1H-benzimidazol-6-yl)-N-[(1r,3r,5R,7R)-tricyclo[3.3.1.1~3,7~]dec-2-yl]-2,3-dihydro-1,4-benzoxazepine-4(5H)-carboxamide] |
| 700 to 2600 | Cc1nc2ccc(-c3ccc4c(c3)CN(C(=O)N3[C@@H]5CC[C@H]3C[C@@H](N)C5)CCO4)cc2[nH]1 [Compound 77, 8-{[7-(2-methyl-1H-benzimidazol-6-yl)-2,3-dihydro-1,4-benzoxazepin-4(5H)-yl]carbonyl}-8-azabicyclo[3.2.1]octan-3-(endo)-amine] |

The remaining lines, values behind:

| Structure (SMILES) | IC50 [nM] |
| --- | --- |
| Cc1nc2ccc(-c3ccc4c(c3)CN(C(=O)N3CCN(c5ccccc5Cl)CC3)CCO4)cc2[nH]1 [Compound 159, 4-{[4-(2-chlorophenyl)piperazin-1-yl]carbonyl}-7-(2-methyl-1H-benzimidazol-6-yl)-2,3,4,5-tetrahydro-1,4-benzoxazepine] | 700 to 2600 |
| CCCCN(Cc1ccccc1)C(=O)N1CCOc2ccc(-c3ccc4nc(C)[nH]c4c3)cc2C1 [Compound 173, N-butyl-7-(2-methyl-1H-benzimidazol-6-yl)-N-(phenylmethyl)-2,3-dihydro-1,4-benzoxazepine-4(5H)-carboxamide] | 250 to 700 |
| Cc1nc2ccc(-c3ccc4c(c3)CN(C(=O)N3CCC(O)(c5ccc(C(F)(F)F)cc5)CC3)CCO4)cc2[nH]1 [Compound 141, 1-{[7-(2-methyl-1H-benzimidazol-6-yl)-2,3-dihydro-1,4-benzoxazepin-4(5H)-yl]carbonyl}-4-[4-(trifluoromethyl)phenyl]piperidin-4-ol] | 250 to 700 |
| Cc1nc2ccc(-c3ccc4c(c3)CN(C(=O)N3CCN(Cc5c(F)cccc5Cl)CC3)CCO4)cc2[nH]1 [Compound 152, 4-({4-[(2-chloro-6-fluorophenyl)methyl]piperazin-1-yl}carbonyl)-7-(2-methyl-1H-benzimidazol-6-yl)-2,3,4,5-tetrahydro-1,4-benzoxazepine] | 250 to 700 |
| COc1cccc(N2CCN(C(=O)N3CCOc4ccc(-c5ccc6nc(C)[nH]c6c5)cc4C3)CC2)c1 [Compound 160, 7-(2-methyl-1H-benzimidazol-6-yl)-4-({4-[3-(methyloxy)phenyl]piperazin-1-yl}carbonyl)-2,3,4,5-tetrahydro-1,4-benzoxazepine] | 700 to 2600 |
| Cc1nc2ccc(-c3ccc4c(c3)CN(C(=O)N3CCCCC3c3ccccc3C)CCO4)cc2[nH]1 (centres unmarked) [Compound 126, 7-(2-methyl-1H-benzimidazol-6-yl)-4-{[2-(2-methylphenyl)piperidin-1-yl]carbonyl}-2,3,4,5-tetrahydro-1,4-benzoxazepine] | 700 to 2600 |
| CC1CCN(C(=O)N2CCOc3ccc(-c4ccc(N)nn4)cc3C2)CC1 [Compound 1, 6-{4-[(4-methylpiperidin-1-yl)carbonyl]-2,3,4,5-tetrahydro-1,4-benzoxazepin-7-yl}pyridazin-3-amine] | 700 to 2600 |
| CC1CCN(C(=O)N2CCOc3ccc(-c4cc(N)[nH]n4)cc3C2)CC1 [Compound 10, 3-{4-[(4-methylpiperidin-1-yl)carbonyl]-2,3,4,5-tetrahydro-1,4-benzoxazepin-7-yl}-1H-pyrazol-5-amine] | 700 to 2600 |
| Cc1nc2ccc(-c3ccc4c(c3)CN(C(=O)N3CCCC[C@H]3c3ccccc3)CCO4)cc2[nH]1 [Compound 65, 7-(2-methyl-1H-benzimidazol-6-yl)-4-{[(2S)-2-phenylpiperidin-1-yl]carbonyl}-2,3,4,5-tetrahydro-1,4-benzoxazepine] | ≤ 50 |
| Cc1nc2cc(-c3ccc4c(c3)CN(C(=O)N3CC[C@@](C)(O)C[C@@H]3c3ccccc3)CCO4)ccc2[nH]1 (racemic) [Compound 133, (±)-(2R,4R)-4-methyl-1-{[7-(2-methyl-1H-benzimidazol-5-yl)-2,3-dihydro-1,4-benzoxazepin-4(5H)-yl]carbonyl}-2-phenylpiperidin-4-ol] | 700 to 2600 |
| Cc1nc2ccc(-c3ccc4c(c3)CN(C(=O)N3CCC(Cc5ccccc5)CC3)CCO4)cc2[nH]1 [Compound 171, 7-(2-methyl-1H-benzimidazol-6-yl)-4-{[4-(phenylmethyl)piperidin-1-yl]carbonyl}-2,3,4,5-tetrahydro-1,4-benzoxazepine] | 250 to 700 |
